{"source": "paper PMC5602130", "about": "“Food and Sex-Related Impacts on the Pharmacokinetics of a Single-Dose of Ginsenoside Compound K in Healthy Subjects” (Frontiers in Pharmacology, 2017)", "key": {"[1]": {"set-up": "method as in unpublished", "settings": "single oral dose at 800 mg; ref unpublished; cited from earlier work"}, "[2]": {"test": "Food-effect two-period crossover trial: plasma pharmacokinetics after a single 200 mg oral dose of Ginsenoside CK Tablets", "type": "in vivo, human", "settings": "for AUC(0-inf) / AUC(0-t) / Tmax / Cmax / half-life / MRT inf / MRT last: human, plasma, po, 200 mg; for AUC(0-inf) / AUC(0-t) / Tmax / Cmax / half-life / MRT inf / MRT last / V/F: single oral 200 mg CK; for Tmax: median (range); for Cmax: read-out: Cmax; for half-life: read-out: t1/2 (converted)", "method": "The food-effect trial was an open-label, randomized, two-period, two-treatment crossover trial, carried out from 15 January to 31 March 2015. Subjects (n = 24) were admitted to the clinical facility (Center of Clinical Pharmacology, the Third Xiangya Hospital, Central South University, Changsha, China) and randomized to receive a single 200 mg oral dose of Ginsenoside CK Tablets (4 × 50 mg tablets) either after a 10 h-fasting period or within 30 min after beginning the consumption of a recommended high-fat, high calorie breakfast (150 calories of protein, 250 calories of carbohydrates, 500 to 600 calories of fat; total calories approximately 800–1,000). Tablets were administered with 250 mL of water, to each subject, in each treatment period. Drinking was prohibited for 2 h before and after medication. Apart from this, the amount and time of drinking were not strictly controlled. Subjects had unified, standard meals 4 and 10 h after drug administration. The alternate treatment was conducted after a 14-day washout period.\nSerial blood samples (5 mL) for PK assessment were collected from an indwelling catheter or by direct venipuncture prior to the administration (t = 0) and 0.25, 0.5, 1, 1.5, 2, 2.5, 3, 3.5, 4, 5, 6, 8, 12, 24, 36, 48, 72, and 96 h after the administration of ginsenoside CK. We inferred that these sampling times were sufficient for this trial, based on international guidelines (FDA, [2003]; CFDA, [2005]) and our previous results, since the sampling time is longer than at least three terminal half-lives of the drug. Additionally, the mean plasma concentrations of both CK and 20(S)-PPD at 96 h were considerably <1/20 of their Cmax even when the single oral dose at 800 mg (unpublished). Plasma was separated in blood collection tubes by centrifugation (3,000 rpm, 10 min) at 4°C within 1 h after sampling, transferred to labeled storage tubes and stored at −70°C pending workup and analysis.\nDescriptive statistics of PK parameters were calculated using established non-compartmental methods, utilizing the WinNonLin version 6.1 software (Pharsight Corporation, USA). The PK parameters determined for each participant included apparent terminal half-life (t1/2), maximum plasma concentration (Cmax), time to Cmax (tmax), area under the plasma concentration-time curve from the time of administration up to the last time point with a measurable concentration post-dose (AUClast), AUC extrapolated to infinity (AUCinf), apparent volume of distribution (V/F), apparent plasma clearance (CL/F) after extravascular administration, mean residence time (MRTlast and MRTinf), and the cumulative excretion rate from urine. The t1/2 was estimated as (ln2)/K, where K represented the slope of the terminal phase of plasma concentration-time profile and was assessed with a weighting factor of 1, using least squares (log-linear regression of at least three data points). The Cmax and tmax were obtained from experimental observations. The values of AUC were calculated using conventional trapezoidal and log-trapezoidal methods and the extrapolated area (Rowland and Tozer, [1995]). CL/F and V/F were calculated as dose/AUCinf and (CL/F)/K, respectively. MRT was calculated as MRT = AUMC/AUC, where AUMC is the area under the first moment curve. The cumulative excretion rate was calculated as the amount of unchanged drug over a time interval in the urine divided by dose, and was expressed as a percentage.\nAll samples were detected using a LC-MS/MS (API 4000, ABI Company, USA) method, validated at the Institute of Clinical Pharmacology, Central South University (Changsha, China). Concentrations of CK and 20(S)-PPD were measured using a triple quadrupole tandem mass spectrometer in multiple reaction monitoring (MRM) mode, via a positive electrospray ionization source at m/z 621.4→ 160.8 for the CK and m/z 461.5→425.3 for 20(S)-PPD, with a dwell time of 200 ms. […]"}, "[3]": {"settings": "geometric mean ratio FO vs. HF, n = 24"}}, "note": "Read-outs that look alike come from different tables or passages of the source. Marks after values point to notes of the source that are not given here."}
{"smiles": "CC(C)=CCC[C@](C)(O)C1CC[C@]2(C)C1[C@H](O)CC1[C@@]3(C)CC[C@H](O)C(C)(C)C3CC[C@]12C", "note": "(stereo partly drawn) [20(S)-PPD, 20(S)-protopanaxadiol]", "values": [{"measurement": "Mean plasma concentration at 96 h as fraction of Cmax", "setting": "[1]", "result": "< 1/20"}, {"measurement": "lgAUClast GMR (90%CI)", "setting": "[2]; FO vs. HF (Female), n = 12", "result": "1.83 (1.27–2.64)"}, {"measurement": "lgCmax GMR (90%CI)", "setting": "[2]; FO vs. HF (Female), n = 12", "result": "1.98 (1.47–2.66)"}, {"measurement": "lgAUClast GMR (90%CI)", "setting": "[2]; FO vs. HF (Male), n = 12", "result": "1.08 (0.69–1.70)"}, {"measurement": "lgCmax GMR (90%CI)", "setting": "[2]; FO vs. HF (Male), n = 12", "result": "1.12 (0.74–1.70)"}, {"measurement": "lgAUClast GMR (90%CI)", "setting": "[2]; M vs. F (FO), n = 12", "result": "0.34 (0.15–0.75)"}, {"measurement": "lgCmax GMR (90%CI)", "setting": "[2]; M vs. F (FO), n = 12", "result": "0.48 (0.23–0.99)"}, {"measurement": "lgAUClast GMR (90%CI)", "setting": "[2]; M vs. F (HF), n = 12", "result": "0.57 (0.23–1.41)"}, {"measurement": "lgCmax GMR (90%CI)", "setting": "[2]; M vs. F (HF), n = 12", "result": "0.84 (0.38–1.84)"}, {"measurement": "AUC(0-inf)", "setting": "[2]; both sexes, FO, all subjects", "result": "228 ± 96.1", "unit": "ng·h/mL"}, {"measurement": "AUC(0-t)", "setting": "[2]; both sexes, FO, all subjects", "result": "161 ± 114", "unit": "ng·h/mL"}, {"measurement": "AUC(0-inf)", "setting": "[2]; both sexes, HF, all subjects", "result": "163 ± 95.4", "unit": "ng·h/mL"}, {"measurement": "AUC(0-t)", "setting": "[2]; both sexes, HF, all subjects", "result": "116 ± 97.1", "unit": "ng·h/mL"}, {"measurement": "Tmax", "setting": "[2]; female, FO", "result": 26, "unit": "h"}, {"measurement": "Tmax", "setting": "[2]; female, HF", "result": 26, "unit": "h"}, {"measurement": "Cmax", "setting": "[2]; female, FO, female", "result": "6.4 ± 2.7", "unit": "ng/mL"}, {"measurement": "half-life", "setting": "[2]; female, FO, female", "result": "19.9 ± 5.5", "unit": "h"}, {"measurement": "Cmax", "setting": "[2]; female, HF, female", "result": "3.5 ± 2.1", "unit": "ng/mL"}, {"measurement": "half-life", "setting": "[2]; female, HF, female", "result": "21.2 ± 7.6", "unit": "h"}, {"measurement": "MRT inf", "setting": "[2]; female, FO", "result": "40.7 ± 7.5", "unit": "h"}, {"measurement": "MRT last", "setting": "[2]; female, FO", "result": "36.3 ± 6.8", "unit": "h"}, {"measurement": "MRT inf", "setting": "[2]; female, HF", "result": "46.7 ± 8.6", "unit": "h"}, {"measurement": "MRT last", "setting": "[2]; female, HF", "result": "37.5 ± 5.8", "unit": "h"}, {"measurement": "AUC(0-inf)", "setting": "[2]; female, FO", "result": "225 ± 86.4", "unit": "ng·h/mL"}, {"measurement": "AUC(0-t)", "setting": "[2]; female, FO", "result": "203 ± 88.8", "unit": "ng·h/mL"}, {"measurement": "AUC(0-inf)", "setting": "[2]; female, HF", "result": "154 ± 99.5", "unit": "ng·h/mL"}, {"measurement": "AUC(0-t)", "setting": "[2]; female, HF", "result": "132 ± 97.4", "unit": "ng·h/mL"}, {"measurement": "lgAUClast GMR (90%CI)", "setting": "[2]; [3]", "result": "1.41 (1.05–1.88)"}, {"measurement": "lgCmax GMR (90%CI)", "setting": "[2]; [3]", "result": "1.49 (1.15–1.93)"}, {"measurement": "Tmax", "setting": "[2]; FO, all subjects", "result": 24.5, "unit": "h"}, {"measurement": "Tmax", "setting": "[2]; HF, all subjects", "result": 26, "unit": "h"}, {"measurement": "half-life", "setting": "[2]; FO (fasting overnight), all subjects", "result": "19.3 ± 6", "unit": "h"}, {"measurement": "Cmax", "setting": "[2]; FO, all subjects", "result": "5.7 ± 3.8", "unit": "ng/mL"}, {"measurement": "half-life", "setting": "[2]; HF (high-fat meal), all subjects", "result": "21.2 ± 9.8", "unit": "h"}, {"measurement": "Cmax", "setting": "[2]; HF, all subjects", "result": "3.7 ± 3", "unit": "ng/mL"}, {"measurement": "MRT inf", "setting": "[2]; FO, all subjects", "result": "38.5 ± 9.7", "unit": "h"}, {"measurement": "MRT last", "setting": "[2]; FO, all subjects", "result": "31.7 ± 8.4", "unit": "h"}, {"measurement": "MRT inf", "setting": "[2]; HF, all subjects", "result": "45.1 ± 9.5", "unit": "h"}, {"measurement": "MRT last", "setting": "[2]; HF, all subjects", "result": "33.8 ± 6.9", "unit": "h"}, {"measurement": "Tmax", "setting": "[2]; male, FO", "result": 23, "unit": "h"}, {"measurement": "Tmax", "setting": "[2]; male, HF", "result": 26, "unit": "h"}, {"measurement": "Cmax", "setting": "[2]; male, FO, male", "result": "4.9 ± 4.7", "unit": "ng/mL"}, {"measurement": "half-life", "setting": "[2]; male, FO, male", "result": "18.2 ± 7.1", "unit": "h"}, {"measurement": "Cmax", "setting": "[2]; male, HF, male", "result": "3.9 ± 3.8", "unit": "ng/mL"}, {"measurement": "half-life", "setting": "[2]; male, HF, male", "result": "21.2 ± 13.7", "unit": "h"}, {"measurement": "MRT inf", "setting": "[2]; male, FO", "result": "34.5 ± 12.5", "unit": "h"}, {"measurement": "MRT last", "setting": "[2]; male, FO", "result": "27 ± 7.4", "unit": "h"}, {"measurement": "MRT inf", "setting": "[2]; male, HF", "result": "42.2 ± 11.1", "unit": "h"}, {"measurement": "MRT last", "setting": "[2]; male, HF", "result": "30.2 ± 5.9", "unit": "h"}, {"measurement": "AUC(0-inf)", "setting": "[2]; male, FO", "result": "234 ± 121", "unit": "ng·h/mL"}, {"measurement": "AUC(0-t)", "setting": "[2]; male, FO", "result": "120 ± 124", "unit": "ng·h/mL"}, {"measurement": "AUC(0-inf)", "setting": "[2]; male, HF", "result": "178 ± 94.2", "unit": "ng·h/mL"}, {"measurement": "AUC(0-t)", "setting": "[2]; male, HF", "result": "100 ± 98.5", "unit": "ng·h/mL"}, {"measurement": "V/F", "setting": "[2]; FO, all subjects", "result": "30,348 ± 22,300^a L"}, {"measurement": "V/F", "setting": "[2]; FO, female", "result": "33,100 ± 27,003^c L"}, {"measurement": "V/F", "setting": "[2]; FO, male", "result": "25,304 ± 9,268^b L"}, {"measurement": "V/F", "setting": "[2]; HF, all subjects", "result": "61,539 ± 64,303^a L"}, {"measurement": "V/F", "setting": "[2]; HF, female", "result": "64,980 ± 64,481^c L"}, {"measurement": "V/F", "setting": "[2]; HF, male", "result": "55,230 ± 69,586^b L"}]}
